Assay results reported in patent US12590062B2, “PD-1/PD-L1 inhibitors” (Gilead Sciences, Inc., priority 2017, dated 2026).
pEC50: −log10 of the molar value.

These compounds were tested against T1, PD-1/PD-L1 interaction (Homo sapiens, UniProt Q9NZQ7) (assay: PD-1/PD-L1 NFAT reporter co-culture assay). Conditions: not given.
T1 construct: expressed in transfected cells; host or cells: CHO cells (aAPC-PD-L1) co-cultured with Jurkat cells overexpressing PD-1 and an NFAT-luciferase reporter
Type: cell-based
Method: PD-1/PD-L1 NEAT Reporter Assay:
Compounds were tested in afunctional co-culture reporter assay in which TCR-mediated NFAT activity is inhibited by the engagement of PD-1 with PD-L1. […] CHO cells expressing surface-bound anti-CD3 antibodies and PD-L1 (artificial antigen presenting cells, aAPC-PD-L1) were first seeded overnight. Jurkat cells overexpressing PD-1 and expressing a luciferase construct under NFAT control are diluted in RPMI assay medium (RPMI 1640 with 2% FBS), mixed with compounds, and immediately seeded on the monolayer of aAPC-PD-L1. The co-culture is then incubated for 6 hrs at 37° C. Luciferase activity is assessed by adding the ONE-Glo reagent and measuring luminescence with a plate reader. EC50 values are calculated from the fit of the dose-response curves to a four-parameter equation (Table 3).

T1 sequence (Q9NZQ7 19-290): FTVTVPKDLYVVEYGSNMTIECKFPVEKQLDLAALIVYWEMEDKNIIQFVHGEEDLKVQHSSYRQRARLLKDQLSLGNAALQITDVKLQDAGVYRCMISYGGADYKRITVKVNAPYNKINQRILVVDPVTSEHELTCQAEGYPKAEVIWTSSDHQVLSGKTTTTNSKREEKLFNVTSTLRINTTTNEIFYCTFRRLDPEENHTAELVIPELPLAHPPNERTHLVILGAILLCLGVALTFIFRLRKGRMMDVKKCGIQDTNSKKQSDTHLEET

| Structure (SMILES) | pEC50 |
| --- | --- |
| COc1nc(OCc2cccc(-c3cccc(COc4nc(OC)c(CNCc5cc(O)no5)cc4Cl)c3C)c2C)c(Cl)cc1CNCc1cc(O)no1 [Example 63, 5,5′-(((((((2,2′-dimethyl-[1,1′-biphenyl]-3,3′-diyl)bis(methylene))bis(oxy))bis(5-chloro-2-methoxypyridine-6,3-diyl))bis(methylene))bis(azanediyl))bis(methylene))bis(isoxazol-3-ol)] | ≤ 4.30 |

Same assay, conditions: Jurkat PD-1 NFAT-luciferase cells co-cultured with aAPC-PD-L1 CHO cells, 6 hrs at 37° C.; read-out: EC50 NFAT Luciferase

| Structure (SMILES) | pEC50 |
| --- | --- |
| CNC(=O)[C@](C)(CO)NCc1cc(Br)c(OCc2cccc(-c3cccc(COc4nc(OC)c(CN[C@@](C)(CO)C(=O)NC)cc4Br)c3C)c2C)nc1OC [Example 274, (2S,2′S)-2,2′-((((((2,2′-dimethyl-[1,1′-biphenyl]-3,3′-diyl)bis(methylene))bis(oxy))bis(5-bromo-2-methoxypyridine-6,3-diyl))bis(methylene))bis(azanediyl))bis(3-hydroxy-N,2-dimethylpropanamide)] | 5.92 |
| COc1nc(OCc2cccc(-c3cccc(COc4nc(OC)c(CNCC(=O)NS(=O)(=O)N(C)C)cc4Cl)c3C)c2C)c(Cl)cc1CNCC(=O)NS(=O)(=O)N(C)C [Example 174, 2,2′-((((((2,2′-dimethyl-[1,1′-biphenyl]-3,3′-diyl)bis(methylene))bis(oxy))bis(5-chloro-2-methoxypyridine-6,3-diyl))bis(methylene))bis(azanediyl))bis(N-(N,N-dimethylsulfamoyl)acetamide)] | ≤ 4.30 |
| Cc1c(COc2nc(OCCc3cc(C#N)ccn3)c(CNC[C@@H](O)CC(=O)O)cc2Br)cccc1-c1cccc(COc2nc(OCCc3cc(C#N)ccn3)c(CNC[C@@H](O)CC(=O)O)cc2Br)c1C [Example 128, (3S,3′S)-4,4′-((((((2,2′-dimethyl-[1,1′-biphenyl]-3,3′-diyl)bis(methylene))bis(oxy))bis(5-bromo-2-(2-(4-cyanopyridin-2-yl)ethoxy)pyridine-6,3-diyl))bis(methylene))bis(azanediyl))bis(3-hydroxybutanoic acid)] | 6.63 |
| COc1nc(OCc2cccc(-c3cccc(COc4nc(OC)c(CN5CCc6[nH]cnc6C5C(=O)O)cc4Cl)c3C)c2C)c(Cl)cc1CN1CCc2[nH]cnc2C1C(=O)O (centres unmarked) [Example 62, 5,5′-(((((2,2′-dimethyl-[1,1′-biphenyl]-3,3′-diyl)bis(methylene))bis(oxy))bis(5-chloro-2-methoxypyridine-6,3-diyl))bis(methylene))bis(4,5,6,7-tetrahydro-1H-imidazo[4,5-c]pyridine-4-carboxylic acid)] | 4.71 |
| C=CCOC(=O)[C@H]1CCN[C@H]1c1cc(Cl)c(OCc2cccc(-c3cccc(COc4nc(OC)c([C@@H]5NCC[C@@H]5C(=O)O)cc4Cl)c3C)c2C)nc1OC [Example 105, (2R,3S)-2-(6-((3′-(((5-((2R,3S)-3-((allyloxy)carbonyl)pyrrolidin-2-yl)-3-chloro-6-methoxypyridin-2-yl)oxy)methyl)-2,2′-dimethyl-[1,1′-biphenyl]-3-yl)methoxy)-5-chloro-2-methoxypyridin-3-yl)pyrrolidine-3-carboxylic acid] | ≤ 4.30 |
| COc1nc(O[C@H]2CCc3c(-c4cccc(-c5ccc(OCCNC[C@@H](O)CC(=O)O)cc5)c4C)cccc32)ccc1CNCC(=O)O [Example 103, (S)-4-((2-((3′-((S)-1-((5-(((carboxymethyl)amino)methyl)-6-methoxypyridin-2-yl)oxy)-2,3-dihydro-1H-inden-4-yl)-2′-methyl-[1,1′-biphenyl]-4-yl)oxy)ethyl)amino)-3-hydroxybutanoic acid] | 4.83 |
| COc1nc(OCc2cccc(-c3cccc(COc4nc(OC)c(CN[C@H]5CCC[C@@H](C(=O)O)C5)cc4Cl)c3C)c2C)c(Cl)cc1CN[C@H]1CCC[C@@H](C(=O)O)C1 [Example 184, (1R,1′R,3S,3′S)-3,3′-((((((2,2′-dimethyl-[1,1′-biphenyl]-3,3′-diyl)bis(methylene))bis(oxy))bis(5-chloro-2-methoxypyridine-6,3-diyl))bis(methylene))bis(azanediyl))bis(cyclohexane-1-carboxylic acid)] | 5.86 |
| COc1nc(OCc2cccc(-c3cccc(COc4nc(OC)c(CNCCN5CCCS5(=O)=O)cc4Br)c3C)c2C)c(Br)cc1CNCCN1CCCS1(=O)=O [Example 264, 2,2′-(((((((2,2′-dimethyl-[1,1′-biphenyl]-3,3′-diyl)bis(methylene))bis(oxy))bis(5-bromo-2-methoxypyridine-6,3-diyl))bis(methylene))bis(azanediyl))bis(ethane-2,1-diyl))bis(isothiazolidine 1,1-dioxide)] | 5.89 |
| Cc1c(COc2cc(OCc3cncc(C#N)c3)c(CNCC(C)(O)CC(=O)O)cc2Cl)cccc1-c1cccc(COc2cc(OCc3cncc(C#N)c3)c(CNCC(C)(O)CC(=O)O)cc2Cl)c1C (centres unmarked) [Example 218, 4,4′-((((((2,2′-dimethyl-[1,1′-biphenyl]-3,3′-diyl)bis(methylene))bis(oxy))bis(5-chloro-2-((5-cyanopyridin-3-yl)methoxy)-4,1-phenylene))bis(methylene))bis(azanediyl))bis(3-hydroxy-3-methylbutanoic acid)] | 6.17 |
| COc1nc(OCc2cccc(-c3cccc(COc4nc(OC)c(CN[C@@H](CO)C(=O)O)cc4Cl)c3C)c2C)c(Cl)cc1CN[C@@H](CO)C(=O)O [Example 50, (2S,2′S)-2,2′-((((((2,2′-dimethyl-[1,1′-biphenyl]-3,3′-diyl)bis(methylene))bis(oxy))bis(5-chloro-2-methoxypyridine-6,3-diyl))bis(methylene))bis(azanediyl))bis(3-hydroxypropanoic acid)] | 7.12 |
| N#Cc1cncc(COc2nc(OCc3cccc(-c4cccc(COc5ccc(CNC[C@@H](O)CC(=O)O)c(OCc6cncc(C#N)c6)n5)c4Cl)c3Cl)ccc2CNC[C@@H](O)CC(=O)O)c1 [Example 195, (3S,3′S)-4,4′-((((((2,2′-Dichloro-[1,1′-biphenyl]-3,3′-diyl)bis(methylene))bis(oxy))bis(2-((5-cyanopyridin-3-yl)methoxy)pyridine-6,3-diyl))bis(methylene))bis(azanediyl))bis(3-hydroxybutanoic acid)] | 6.39 |
| COc1nc(OCc2cccc(-c3cccc(COc4nc(OC)c(CNC5(C(=O)O)COC5)cc4Cl)c3C)c2C)c(Cl)cc1CNC1(C(=O)O)COC1 [Example 87, 3,3′-((((((2,2′-dimethyl-[1,1′-biphenyl]-3,3′-diyl)bis(methylene))bis(oxy))bis(5-chloro-2-methoxypyridine-6,3-diyl))bis(methylene))bis(azanediyl))bis(oxetane-3-carboxylic acid)] | ≤ 4.30 |
| COc1nc(OCc2cccc(-c3cccc(COc4nc(OC)c(CNCC5(O)CC5)cc4Cl)c3C)c2C)c(Cl)cc1CNCC1(O)CC1 [Example 175, 1,1′-(((((((2,2′-dimethyl-[1,1′-biphenyl]-3,3′-diyl)bis(methylene))bis(oxy))bis(5-chloro-2-methoxypyridine-6,3-diyl))bis(methylene))bis(azanediyl))bis(methylene))bis(cyclopropan-1-ol)] | 6.09 |
| COc1nc(OCc2cccc(-c3cccc(COc4nc(OC)c(C5COCCN5)cc4Br)c3C)c2C)c(Br)cc1C1COCCN1 (centres unmarked) [Example 249, 3,3′-((((2,2′-dimethyl-[1,1′-biphenyl]-3,3′-diyl)bis(methylene))bis(oxy))bis(5-bromo-2-methoxypyridine-6,3-diyl))dimorpholine] | ≤ 4.30 |
| COc1nc(OCc2cccc(-c3cccc(COc4nc(OC)c(CN[C@H]5CCCC[C@@H]5O)cc4Cl)c3C)c2C)c(Cl)cc1CN[C@H]1CCCC[C@@H]1O [Example 229, (1S,1′S,2S,2′S)-2,2′-((((((2,2′-dimethyl-[1,1′-biphenyl]-3,3′-diyl)bis(methylene))bis(oxy))bis(5-chloro-2-methoxypyridine-6,3-diyl))bis(methylene))bis(azanediyl))bis(cyclohexan-1-ol)] | 5.91 |
| COc1nc(OCc2cccc(-c3cccc(COc4nc(OC)c(CN[C@@H]5CCC[C@@H]5O)cc4Cl)c3C)c2C)c(Cl)cc1CN[C@@H]1CCC[C@@H]1O [Example 227, (1S,1′S,2R,2′R)-2,2′-((((((2,2′-dimethyl-[1,1′-biphenyl]-3,3′-diyl)bis(methylene))bis(oxy))bis(5-chloro-2-methoxypyridine-6,3-diyl))bis(methylene))bis(azanediyl))bis(cyclopentan-1-ol)] | 6.21 |
| COc1nc(OCc2cccc(-c3cccc(COc4nc(OC)c(CN5CCOC(C(=O)O)C5)cc4Cl)c3C)c2C)c(Cl)cc1CN1CCOC(C(=O)O)C1 (centres unmarked) [Example 235] | ≤ 4.30 |
| COc1nc(OCc2cccc(-c3cccc(COc4nc(OC)c(CNC(CO)c5nn[nH]n5)cc4Cl)c3C)c2C)c(Cl)cc1CNC(CO)c1nn[nH]n1 (centres unmarked) [Example 52, 2,2′-((((((2,2′-dimethyl-[1,1′-biphenyl]-3,3′-diyl)bis(methylene))bis(oxy))bis(5-chloro-2-methoxypyridine-6,3-diyl))bis(methylene))bis(azanediyl))bis(2-(2H-tetrazol-5-yl)ethan-1-ol)] | 4.70 |
| Cc1c(COc2cc(OCc3cccc(C#N)c3)c(CNCCO)cc2Cl)cccc1-c1cccc(COc2cc(OCc3cccc(C#N)c3)c(CNCCO)cc2Cl)c1C [Example 284, 3,3′-((((((2,2′-dimethyl-[1,1′-biphenyl]-3,3′-diyl)bis(methylene))bis(oxy))bis(4-chloro-6-(((2-hydroxyethyl)amino)methyl)-3,1-phenylene))bis(oxy))bis(methylene))dibenzonitrile] | 5.84 |
